Data: US6264935A, “Ophthalmic composition containing a carbonic anhydrase inhibitor and xanthan gum” (priority 1996, dated 2001)
“Also recorded” adds a separate entry of the source.

Tests used:
[1] = background; result in words; cited from earlier work
[2] = rabbit, in vivo

Row | Compound | reduction of intraocular pressure [1] | side effects / local effects [1] | duration of activity and loss of effect [1] | change in ocular bioavailability compared with the TRUSOPT formulation [2]
1 | CC[C@@H]1C(=O)OC[C@@H]1Cc1cncn1C [pilocarpine] | reduce intraocular pressure | undesirable local effects | – | –
2 | CC(C)(C)NC[C@H](O)COc1nsnc1N1CCOCC1 [timolol] | found to reduce intraocular pressure | devoid of many unwanted side effects associated with pilocarpine; also recorded: devoid of local anaesthetic properties | long duration of activity; also recorded: minimal loss of effect with increased duration of dosing | –
3 | polyvinyl alcohol | – | – | – | only minor changes in bioavailability
4 | cyclodextrin | – | – | – | only minor changes in bioavailability
